A word on the melting point: it is the temperature of the solid-liquid transition.

Counter-ions that a name gives are not always drawn.

The compound `c1ccc2c(c1)CCC(COc1nccnc1N1CCNCC1)C2` (centres unmarked) (as salt: fumarate) [Example 207, 3-(1-piperazinyl)-2-pyrazinyl 1,2,3,4-tetrahydro-2-naphthalenylmethyl ether] displayed a melting point of 186 to 188 °C.
The same measure for `c1cnc2ccc(COc3nccnc3N3CCNCC3)cc2c1` (as salt: fumarate) [Example 213, 3-(1-Piperazinyl)-2-pyrazinyl 6-quinolinylmethyl ether]: 207 to 209 °C; for `c1ccc(OCCOc2nc3ccccc3nc2N2CCNCC2)cc1` (as salt: hydrochloride) [Example 3, 2-(2-Phenoxyethoxy)-3-(1-piperazinyl)quinoxaline]: 123 to 126 °C.
Compound `c1ccc(OCCCOc2nccnc2N2CCNCC2)cc1` (as salt: hydrochloride) [Example 90, 3-(Phenoxy)propyl 3-(1-piperazinyl)-2-pyrazinyl ether] showed a melting point of 146 to 146.5 °C.
The same measure for `c1ccc(OCCCCOc2nccnc2N2CCNCC2)cc1` (as salt: hydrochloride) [Example 98, 4-(Phenoxy)butyl 3-(1-piperazinyl)-2-pyrazinyl ether]: 129 to 131 °C; for `c1cnc(N2CCNCC2)c(OCC2CCCO2)n1` (centres unmarked) (as salt: hydrochloride) [Example 124, 2-(1-Piperazinyl)-3-(tetrahydro-2-furanylmethoxy)pyrazine]: 130 to 136 °C.
The same measure for `CN1CC(COc2nccnc2N2CCNCC2)Oc2ccccc21` (centres unmarked) (as salt: hydrochloride) [Example 131, 2-(4-Methyl-3,4-dihydro-2H-1,4-benzoxazin-2-ylmethoxy)-3-(1-piperazinyl)-pyrazine]: 119 °C (dec.); for `c1ccc2c(c1)CCC(COc1nccnc1N1CCNCC1)O2` (centres unmarked) (as salt: hydrochloride) [Example 133, 2-(3,4-Dihydro-2H-chromen-2-ylmethoxy)-3-(1-piperazinyl)pyrazine]: 170 to 175 °C.
Compound `Cc1nc2cc(OCCOc3nccnc3N3CCNCC3)ccc2s1` (as salt: hydrochloride) [Example 143, 2-Methyl-5-(2-{[3-(1-piperazinyl)-2-pyrazinyl]oxy}ethoxy)-1,3-benzothiazole] had a melting point of 188 to 190 °C.
The same measure for `c1ccc2c(c1)OC[C@@H](COc1nccnc1N1CCNCC1)O2` (as salt: hydrochloride) [Example 148, 2-[(2S)-2,3-Dihydro-1,4-benzodioxin-2-ylmethoxy]-3-(1-piperazinyl)pyrazine]: 160 °C (dec.); for `c1cncc(OCCOc2nccnc2N2CCNCC2)c1` (as salt: hydrochloride) [Example 150, 2-(3-Pyridyloxy)ethyl 3-(1-piperazinyl)-2-pyrazinyl ether]: 170 to 175 °C; for `c1cc(OCCOc2nccnc2N2CCNCC2)ccn1` (as salt: hydrochloride) [Example 151, 2-(4-Pyridyloxy)ethyl 3-(1-piperazinyl)-2-pyrazinyl ether]: 170 °C (dec.).
With `Cc1ccc(OCCOc2nccnc2N2CCNCC2)cn1` (as salt: hydrochloride) [Example 153, 2-(6-Methyl-3-pyridyloxy)ethyl 3-(1-piperazinyl)-2-pyrazinyl ether], the melting point was 157 °C (dec.).
The same measure for `Cc1ncccc1OCCOc1nccnc1N1CCNCC1` (as salt: hydrochloride) [Example 154, 2-(2-Methyl-3-pyridyloxy)ethyl 3-(1-piperazinyl)-2-pyrazinyl ether]: 50 °C (dec.); for `c1cnc(N2CCNCC2)c(OCCOc2ccsc2)n1` (as salt: hydrochloride) [Example 157, 2-(3-Thienyloxy)ethyl 3-(1-piperazinyl)-2-pyrazinyl ether]: 75 to 85 °C; for `Nc1cc(OCCOc2nccnc2N2CCNCC2)c2ccccc2n1` (as salt: hydrochloride) [Example 160, 4-(2-{[3-(1-piperazinyl)-2-pyrazinyl]oxy}ethoxy)-2-quinolinamine]: 156 °C (dec.).
To `CN1CCN(c2nccnc2OCC2COc3ccccc3O2)CC1` (centres unmarked) (as salt: hydrochloride) [Example 169, 2,3-Dihydro-1,4-benzodioxin-2-ylmethyl 3-(4-methyl-1-piperazinyl)-2-pyrazinyl ether] belongs 160 to 167 °C; to `C[C@@H]1CNCCN1c1nccnc1OCCOc1cccnc1` (as salt: hydrochloride) [Example 173, (2R)-Methyl-1-{3-[2-(3-pyridinyloxy)ethoxy]-2-pyrazinyl}piperazine], 180 to 183 °C.
Compound `CC1CNCCN1c1nc2ccccc2nc1OCCOc1cccc2c1OCO2` (centres unmarked) (as salt: hydrochloride) [Example 182, 2-[2-(1,3-Benzodioxol-4-yloxy)ethoxy]-3-(2-methyl-1-piperazinyl)quinoxaline] showed a melting point of 133 to 138 °C.
To `Cc1nc(OCCOc2ccccc2)c(N2CCNCC2)nc1C` (as salt: hydrochloride) [Example 183, 5,6-Dimethyl-2-(2-phenoxyethoxy)-3-(1-piperazinyl)pyrazine] belongs 138 to 140 °C; to `c1ccc(OCCOc2cccnc2N2CCNCC2)cc1` (as salt: hydrochloride) [Example 185, 1-[3-(2-Phenoxyethoxy)-2-pyridinyl]piperazine], 91 to 120 °C.
`c1cnc(N2CCNCC2)c(OCCOc2ccc3c(c2)OCCO3)n1` (as salt: hydrochloride) [Example 210, 2-[2-(2,3-Dihydro-1,4-benzodioxin-6-yloxy)ethoxy]-3-(1-piperazinyl)pyrazine] showed a melting point of 158 to 160 °C.
To `c1coc(COc2nccnc2N2CCNCC2)c1` (as salt: maleate) [Example 2, 2-(2-Furylmethoxy)-3-(1-piperazinyl)pyrazine] belongs 118 to 120 °C.
The same measure for `Cc1ccccc1OCCOc1nccnc1N1CCNCC1` (as salt: maleate) [Example 93, 2-(2-Methylphenoxy)ethyl 3-(1-piperazinyl)-2-pyrazinyl ether]: 151 to 152 °C; for `Fc1ccccc1OCCOc1nccnc1N1CCNCC1` (as salt: maleate) [Example 95, 2-(2-Fluorophenoxy)ethyl 3-(1-piperazinyl)-2-pyrazinyl ether]: 171 to 173 °C.
To `N#Cc1ccccc1OCCOc1nccnc1N1CCNCC1` (as salt: maleate) [Example 96, 2-(2-Cyanophenoxy)ethyl 3-(1-piperazinyl)-2-pyrazinyl ether] belongs 165 to 166 °C; to `Fc1cccc(OCCOc2nccnc2N2CCNCC2)c1` (as salt: maleate) [Example 101, 2-[2-(3-Fluorophenoxy)ethoxy]-3-(1-piperazinyl)pyrazine], 141 to 143 °C.
For the compound `OCc1cccc(OCCOc2nccnc2N2CCNCC2)c1` (as salt: maleate) [Example 108, [3-(2-{[3-(1-piperazinyl)-2-pyrazinyl]oxy}ethoxy)phenyl]methanol], the melting point was in the range of 123.2 to 123.5 °C.
`COCc1cccc(OCCOc2nccnc2N2CCNCC2)c1` (as salt: maleate) [Example 109, 2-{2-[3-(Methoxymethyl)phenoxy]ethoxy}-3-(1-piperazinyl)pyrazine]: the melting point fell in the range of 114 to 115 °C.
The same measure for `NC(=O)c1cccc(OCCOc2nccnc2N2CCNCC2)c1` (as salt: maleate) [Example 110, 3-(2-{[3-(1-piperazinyl)-2-pyrazinyl]oxy}ethoxy)benzamide]: 134 to 137 °C.
The same measure for `c1ccc(Nc2ccc(OCCOc3nccnc3N3CCNCC3)cc2)cc1` (as salt: maleate) [Example 111, N-Phenyl-4-(2-{[3-(1-piperazinyl)-2-pyrazinyl]oxy}ethoxy)aniline]: 132 to 133 °C; for `CC(=O)Nc1cccc(OCCOc2nccnc2N2CCNCC2)c1` (as salt: maleate) [Example 119, 2-[2-(3-Acetamidophenoxy)ethoxy]-3-(1-piperazinyl)pyrazine]: 154 to 155 °C; for `OCCOc1ccc(OCCOc2nccnc2N2CCNCC2)cc1` (as salt: maleate) [Example 120, 2-[4-(2-{[3-(1-piperazinyl)-2-pyrazinyl]oxy}ethoxy)phenoxy]ethanol]: 127 to 129 °C.
To `c1cncc(CCCOc2nccnc2N2CCNCC2)c1` (as salt: maleate) [Example 126, 2-(1-piperazinyl)-3-[3-(3-pyridinyl)propoxy]pyrazine] belongs 128 to 130 °C; to `c1cc(CCCOc2nccnc2N2CCNCC2)ccn1` (as salt: maleate) [Example 127, 2-(1-piperazinyl)-3-[3-(4-pyridinyl)propoxy]pyrazine], 90 to 91 °C.
As to `Cc1cccc(CCCOc2nccnc2N2CCNCC2)n1` (as salt: maleate) [Example 128, 2-[3-(6-Methyl-2-pyridinyl)propoxy]-3-(1-piperazinyl)pyrazine], the melting point was 134 to 136 °C.
To `c1cc(OCCOc2nccnc2N2CCNCC2)c2ccncc2c1` (as salt: maleate) [Example 134, 2-(5-Isoquinolinyloxy)ethyl 3-(1-piperazinyl)-2-pyrazinyl ether] belongs 178 to 180.5 °C.
To `c1cc(OCCOc2nccnc2N2CCNCC2)c2cccnc2c1` (as salt: maleate) [Example 135, 2-(5-Quinolinyloxy)ethyl 3-(1-piperazinyl)-2-pyrazinyl ether] belongs 132 to 135 °C; to `c1cnc2ccc(OCCOc3nccnc3N3CCNCC3)cc2c1` (as salt: maleate) [Example 136, 2-(6-Quinolinyloxy)ethyl 3-(1-piperazinyl)-2-pyrazinyl ether], 167 to 169 °C; to `c1cnc2cc(OCCOc3nccnc3N3CCNCC3)ccc2c1` (as salt: maleate) [Example 137, 2-(7-Quinolinyloxy)ethyl 3-(1-piperazinyl)-2-pyrazinyl ether], 156 to 158 °C.
To `COc1ccc(C)cc1OCCOc1nccnc1N1CCNCC1` (as salt: maleate) [Example 144, 2-[2-(2-Methoxy-5-methylphenoxy)ethoxy]-3-(1-piperazinyl)pyrazine] belongs 148 to 149 °C.
